What is called EC50 is the concentration needed to bring the measured effect to its halfway point. The term CC50 denotes the concentration that lowers cell viability or growth by half.

These results are taken from patent publication US10759774B2, “Inhibitors of hepatitis B virus targeting capsid assembly” (THE CURATORS OF THE UNIVERSITY OF MISSOURI, priority 2017, dated 2020).

One data set concerns HBV. As to the kind of experiment: Cell-based anti-HBV activity of HF9C6 analogs (Table 2; HBV DNA in HepAD38 cells). The settings on record: Hepatitis B virus. The method, then:
HepAD38 cells (5×10^4) were plated in 96-well plates in tet media. The next day, cells were washed 2× with PBS, and the media was replaced with complete media (DMEM, 10% FBS) containing compounds. Fresh complete media with compounds was added again after 2 days. After 2 additional days, cells were washed with PBS, trypsinized, and pelleted by centrifugation. The cell pellet was resuspended in 200 μl PBS, and DNA was extracted and analyzed as above. For dose responses, values were plotted in GraphPad Prism 5 and analyzed with the log (inhibitor) vs. normalized response—variable slope equation.
HepAD38 cells were seeded in 96-well plates (3×10^4 cells/well) in tet media. […] After 2 days, the media was removed, and fresh media containing compounds was added. After 2 additional days, cells were washed with PBS and lysed with 10 mM Tris (pH 7.5), 1mM EDTA, 100mM NaCl, 1% NP-40 at 37° C. for 30 min. 60 μl of lysate was added to 60 μl of 1 M NaOH, 1.5 M NaCl and incubated at RT for 5 min to denature DNA. 120 μl of 1 M Tris (pH 7.4), 2 M NaCl was added. Samples were transferred to positively charged nylon membranes (Roche) using a vacuum dot blot manifold. The wells were washed with 200 μl of 20× SSC (3M NaCl, 300 mM sodium citrate), and the DNA was UV crosslinked to the membranes. […] Membranes were incubated with CDP-STAR® chemiluminescent substrate (Roche), imaged by chemiluminescence, and quantified by densitometry. Values were plotted in GraphPad Prism 5 and analyzed with the log (inhibitor) vs. normalized response—variable slope equation.

Data set [1] is described as follows: Cytotoxicity, Cell Proliferation Kit II (XTT) (Table 2). It counts as cell-based. The following applies: human. On the technique in general: Formazan colour is commonly taken as a measure of viable cells.
Protocol: HepG2 cells were treated with compounds as in the antiviral screening above. At the end of treatment duration, cell viability was assessed with the Cell Proliferation Kit II (XTT) (Roche, Basel, Switzerland) according to the manufacturer's instructions. Values were plotted in GraphPad Prism 5 and analyzed with the log (inhibitor) vs. normalized response—variable slope equation.
Setting [2] is: Table 2, cell-based, read-out: EC50.

The structures appear in SMILES notation. Like-named read-outs stand apart in the source and are kept apart here. Some results are limits rather than exact numbers.

Turning to `COc1ccc(NC(=O)c2sc(N)c(C(N)=O)c2C)cc1` [ZW-769, 5-Amino-N2-(4-methoxyphenyl)-3-methylthiophene-2,4-dicarboxamide], in the data set on HBV (setting [2]), the EC50 is ~10 µM.

Turning to `Cc1c(C(=O)NCc2ccccc2)sc(N)c1C(N)=O` [ZW-770, 5-Amino-N2-benzyl-3-methylthiophene-2,4-dicarboxamide], the EC50 in the data set with HBV (setting [2]) was ~10 µM.

As for `Cc1ccc(NC(=O)c2sc(N)c(C(N)=O)c2C)cc1` [ZW-771, 5-Amino-3-methyl-N2-(p-tolyl)thiophene-2,4-dicarboxamide], the EC50 in the data set on HBV (setting [2]) is > 10 µM.

As to `CCOC(=O)c1sc2[nH]c(Cc3ccccc3)nc(=O)c2c1C` [ZW-772, Ethyl 2-benzyl-5-methyl-4-oxo-1,4-dihydrothieno[2,3-d]pyrimidine-6-carboxylate], in the data set with HBV, the EC50 is > 10 µM.

`CCOC(=O)c1sc2[nH]c(Cc3cc(C)cc(C)c3)nc(=O)c2c1C` [ZW-773, Ethyl 2-(3,5-dimethylbenzyl)-5-methyl-4-oxo-1,4-dihydrothieno[2,3-d]pyrimidine-6-carboxylate]: in the data set with HBV (setting [2]), the EC50 is > 10 µM.

On to `CCOC(=O)c1sc2[nH]c(Cc3ccc(-c4ccccc4)cc3)nc(=O)c2c1C` [ZW-774, Ethyl 2-([1,1′-biphenyl]-4-ylmethyl)-5-methyl-4-oxo-1,4-dihydrothieno[2,3-d]pyrimidine-6-carboxylate], for which the EC50 in the data set on HBV (setting [2]) is > 10 µM.

With `CCOC(=O)c1sc2[nH]c(-c3ccc(C)c(F)c3)nc(=O)c2c1C` [ZW-775, Ethyl 2-(3-fluoro-4-methylphenyl)-5-methyl-4-oxo-1,4-dihydrothieno[2,3-d]pyrimidine-6-carboxylate], in the data set with HBV (setting [2]), the EC50 was > 10 µM.

As for `CCOC(=O)c1sc2[nH]c(Cc3ccc(F)cc3)nc(=O)c2c1C` [ZW-776, Ethyl 2-(4-fluorobenzyl)-5-methyl-4-oxo-1,4-dihydrothieno[2,3-d]pyrimidine-6-carboxylate], the EC50 with HBV (setting [2]) was > 10 µM.

In the case of `CCOC(=O)c1sc2[nH]c(C3CCCCC3)nc(=O)c2c1C` [ZW-777, Ethyl 2-cyclohexyl-5-methyl-4-oxo-1,4-dihydrothieno[2,3-d]pyrimidine-6-carboxylate], the EC50 in the data set with HBV (setting [2]) is > 10 µM.

As to `Cc1c(C(=O)Nc2ccccc2)sc(N)c1C(=O)NCc1ccc(C(F)(F)F)cc1` [ZW-790, 5-Amino-3-methyl-N2-phenyl-N4-(4-(trifluoromethyl)benzyl)thiophene-2,4-dicarboxamide], the EC50 in the data set on HBV (setting [2]) is > 10 µM.

As for `COc1ccc(CNC(=O)c2c(N)sc(C(=O)Nc3ccccc3)c2C)cc1` [ZW-791, 5-Amino-N4-(4-methoxybenzyl)-3-methyl-N2-phenylthiophene-2,4-dicarboxamide], the EC50 with HBV (setting [2]) was > 10 µM.

`Cc1c(C(=O)Nc2ccccc2)sc(N)c1C(=O)NC1CC1` [ZW-792, 5-Amino-N4-cyclopropyl-3-methyl-N2-phenylthiophene-2,4-dicarboxamide]: the EC50 with HBV (setting [2]) was > 10 µM.

With `Cc1c(C(=O)Nc2ccccc2)sc(N)c1C(=O)Nc1ccccc1` [ZW-794, 5-Amino-3-methyl-N2,N4-diphenylthiophene-2,4-dicarboxamide], in data set [1] (HepG2 cells), the CC50 was > 100 µM.

In data set [1], `Cc1c(C(=O)Nc2ccc(F)c(F)c2)sc(N)c1C(=O)Nc1ccccc1` [ZW-892, 5-Amino-N2-(3,4-difluorophenyl)-3-methyl-N4-phenylthiophene-2,4-dicarboxamide] came in with a CC50 of 26.2 ± 2.7 µM.

With `Cc1c(C(=O)Nc2ccc(F)c(F)c2)sc(N)c1C(=O)Nc1ccc(Cl)cc1` [ZW-893, 5-Amino-N4-(4-chlorophenyl)-N2-(3,4-difluorophenyl)-3-methylthiophene-2,4-dicarboxamide], in the data set with HBV (setting [2]), the EC50 was > 10 µM.

Take `Cc1c(C(=O)Nc2ccc(F)c(F)c2)sc(N)c1C(=O)NC1CCCC1` [ZW-894, 5-Amino-N4-cyclopentyl-N2-(3,4-difluorophenyl)-3-methylthiophene-2,4-dicarboxamide]: in the data set on HBV (setting [2]), the EC50 is > 10 µM.

Consider `Cc1c(C(=O)Nc2ccccc2)sc(N)c1C(=O)NC1CCCC1` [ZW-895, 5-Amino-N4-cyclopentyl-3-methyl-N2-phenylthiophene-2,4-dicarboxamide], for which, in the data set with HBV (setting [2]), the EC50 was > 10 µM.

Consider `Cc1c(C(=O)Nc2ccc(F)c(F)c2)sc(N)c1C(N)=O` [ZW-896, 5-Amino-N2-(3,4-difluorophenyl)-3-methylthiophene-2,4-dicarboxamide], for which the CC50 in data set [1] (HepG2 cells) is > 100 µM.

`Cc1c(C(=O)Nc2ccc(F)c(F)c2)sc(N)c1C(=O)Nc1ccc(F)c(F)c1` [ZW-932, 5-Amino-N2,N4-bis(3,4-difluorophenyl)-3-methylthiophene-2,4-dicarboxamide] returned a CC50 in data set [1] (HepG2 cells) of 17.4 ± 1.3 µM.

Consider `Cc1c(C(=O)Nc2ccccc2)sc(N)c1C(=O)Nc1ccc(F)c(F)c1` [ZW-933, 5-Amino-N4-(3,4-difluorophenyl)-3-methyl-N2-phenylthiophene-2,4-dicarboxamide], for which the CC50 in data set [1] is 40.5 ± 5.1 µM.

As for `Cc1cc(NC(=O)c2c(N)sc(C(=O)Nc3ccccc3)c2C)ccc1F` [ZW-934, 5-Amino-N4-(4-fluoro-3-methylphenyl)-3-methyl-N2-phenylthiophene-2,4-dicarboxamide], in data set [1], half-maximal cytotoxicity (CC50) was put at 39.6 ± 2.6 µM.

Molecule `Cc1c(C(=O)Nc2cc(F)c(F)c(Cl)c2)sc(N)c1C(N)=O` [ZW-1034, 5-Amino-N2-(3-chloro-4,5-difluorophenyl)-3-methylthiophene-2,4-dicarboxamide] showed a CC50 in data set [1] of 71.8 ± 4.1 µM.

Regarding `Cc1c(C(=O)Nc2ccc(F)cc2)sc(N)c1C(N)=O` [ZW-1037, 5-Amino-N2-(4-fluorophenyl)-3-methylthiophene-2,4-dicarboxamide], the CC50 in data set [1] (HepG2 cells) was > 100 µM.

Turning to `Cc1c(C(=O)Nc2ccc(F)c(C#N)c2)sc(N)c1C(N)=O` [ZW-1039, 5-Amino-N2-(3-cyano-4-fluorophenyl)-3-methylthiophene-2,4-dicarboxamide], in data set [1] (HepG2 cells), the CC50 is > 100 µM.

In data set [1], `Cc1c(C(=O)Nc2ccccc2)sc(NC(=O)c2cc(Cl)cc(Cl)c2)c1C(N)=O` [ZW-1040, 5-(3,5-Dichlorobenzamido)-3-methyl-N2-phenylthiophene-2,4-dicarboxamide] gave a CC50 of 49.5 ± 0.1 µM.

In the case of `Cc1c(C(=O)Nc2ccc(F)c(F)c2)sc(N)c1C#N` [ZW-1043, 5-Amino-4-cyano-N-(3,4-difluorophenyl)-3-methylthiophene-2-carboxamide], the EC50 in the data set on HBV (setting [2]) was ~10 µM. Besides, in data set [1] (HepG2 cells), the CC50 was > 100 µM.

`Cc1cc(NC(=O)c2sc(N)c(C#N)c2C)ccc1F` [ZW-1044, 5-Amino-4-cyano-N-(4-fluoro-3-methylphenyl)-3-methylthiophene-2-carboxamide] displayed a CC50 in data set [1] of 96.1 ± 10.1 µM.

As for `CCOC(=O)c1c(N)sc(C(=O)Nc2ccc(F)c(C)c2)c1C` [ZW-1046, Ethyl 2-amino-5-((4-fluoro-3-methylphenyl)carbamoyl)-4-methylthiophene-3-carboxylate], in data set [1] (HepG2 cells), the CC50 was > 100 µM.

As for `Cc1c(C(=O)Nc2ccccc2)sc(NC(=O)c2cn[nH]c2)c1C(N)=O` [ZW-1052, 3-Methyl-N2-phenyl-5-(1H-pyrazole-4-carboxamido)thiophene-2,4-dicarboxamide], the CC50 in data set [1] (HepG2 cells) was > 100 µM.

With `Cc1c(C(=O)Nc2ccccc2)sc(NC(=O)c2nccs2)c1C(N)=O` [ZW-1053, 3-Methyl-N2-phenyl-5-(thiazole-2-carboxamido)thiophene-2,4-dicarboxamide], the CC50 in data set [1] (HepG2 cells) is > 100 µM.

For `Cc1c(C(=O)Nc2ccccc2)sc(NC(=O)c2csc([N+](=O)[O-])c2)c1C(N)=O` [ZW-1054, 3-Methyl-5-(5-nitrothiophene-3-carboxamido)-N2-phenylthiophene-2,4-dicarboxamide], the CC50 in data set [1] (HepG2 cells) was > 100 µM.

Turning to `Cc1c(C(=O)Nc2ccccc2)sc(NC(=O)c2ccsc2)c1C(N)=O` [ZW-1055, 3-Methyl-N2-phenyl-5-(thiophene-3-carboxamido)thiophene-2,4-dicarboxamide], in data set [1] (HepG2 cells), the CC50 was > 100 µM.

For `Cc1ccc(C(=O)Nc2sc(C(=O)Nc3ccccc3)c(C)c2C(N)=O)s1` [ZW-1056, 3-Methyl-5-(5-methylthiophene-2-carboxamido)-N2-phenylthiophene-2,4-dicarboxamide], the CC50 in data set [1] (HepG2 cells) was > 100 µM.

Take `Cc1c(C(=O)Nc2ccc(F)c(C(F)(F)F)c2)sc(N)c1C(N)=O` [ZW-1057, 5-Amino-N2-(4-fluoro-3-(trifluoromethyl)phenyl)-3-methylthiophene-2,4-dicarboxamide]: in data set [1] (HepG2 cells), the CC50 is > 100 µM.

In the case of `Cc1c(C(=O)Nc2ccc(F)c(C(F)F)c2)sc(N)c1C(N)=O` [ZW-1066, 5-Amino-N2-(3-(difluoromethyl)-4-fluorophenyl)-3-methylthiophene-2,4-dicarboxamide], the CC50 in data set [1] (HepG2 cells) is > 100 µM.

Take `Cc1c(C(=O)Nc2ccc(Cl)c(C(F)(F)F)c2)sc(N)c1C(N)=O` [ZW-1067, 5-Amino-N2-(4-chloro-3-(trifluoromethyl)phenyl)-3-methylthiophene-2,4-dicarboxamide]: the midpoint of cytotoxicity in data set [1], the CC50, lay at 72.1 ± 6.4 µM.

`Cc1cc(NC(=O)c2sc(N)c(C(N)=O)c2C)ccc1Br` [ZW-1068, 5-Amino-N2-(4-bromo-3-methylphenyl)-3-methylthiophene-2,4-dicarboxamide] gave a CC50 in data set [1] of 107 ± 7.2 µM.

Consider `Cc1c(C(=O)Nc2ccccc2)sc(NC(=O)c2ccc(S(C)(=O)=O)cc2)c1C(N)=O` [ZW-1073, 3-Methyl-5-(4-(methylsulfonyl)benzamido)-N2-phenylthiophene-2,4-dicarboxamide], for which, in data set [1] (HepG2 cells), the CC50 is > 100 µM.
